Laboratory results: patent US4839376A, “Pyrazoline derivatives for treating cerebrovascular diseases” (Mitsui Toatsu Chemicals, Inc., priority 1987, dated 1989)
Like-named read-outs stand apart in the source and are kept apart here.

Legend:
[1] = tested on: cerebral infarction of rats caused by occlusion of the middle cerebral artery; experiment: Action against cerebral infarction of rats caused by occlusion of the middle cerebral artery (TTC stain, planimeter); format: in vivo; conditions: i.p. three times, 24 h after occlusion
Description: (Action against cerebral infarction of rats caused by occlusion of the middle cerebral artery)
Cerebral infarction of rats caused by occlusion of the middle cerebral artery was measured by the method of Tamura et al. (Japan Clinics, 43, 185, 1985). The middle cerebral artery of rats was artificially occluded, the compound being tested was suspended in 0.5% aqueous solution of CMC, and this suspension was intraperitoneally injected to each rat immediately after occlusion, and 8 hours and 16 hours later (a total of three times). Twenty-four hours after occlusion, each of the treated rats was sacrificed, and the brain was excised, stained with TTC and cut into equal six parts from top to bottom. The cross-sections were photographed, and the ratio of infarcted areas to the whole brain was measured by means of a planimeter.

[2] = tested on: ischemic cerebral edemas of rats caused by occlusion of the middle cerebral artery; experiment: Action upon ischemic cerebral edemas of rats caused by occlusion of the middle cerebral artery; format: in vivo, Wistar rats; conditions: Rattus norvegicus, ip, 24 h, read-out: Cerebral Edema Inhibition Rate; for inhibition in vivo at 25 mg/kg: dose 25 mg/Kg i.p.; for inhibition in vivo at 30 mg/kg: dose 30 mg/Kg i.p.
Description: (Action upon ischemic cerebral edemas of rats caused by occlusion of the middle cerebral artery)
The compound being tested was suspended in 0.5% aqueous solution of CMC, and this suspension was intraperitoneally injected to each rat immediately after occlusion, and 8 hours and 16 hours later (a total of three times). Twenty-four hours after occlusion, each of the treated rats was sacrificed, the brain was excised, and the water content of hemispheres were determined by weighing the hemispheres before and after drying at 110° C. to the constant weight. On the other hand, the rats of the control group were subjected to arterial occlusion in the same way as above, followed by intraperitoneal injection of physiological saline three times a day. The cerebral edema inhibition rate of each compound was calculated from the following equation: [formula] where CL and CR represent the water contents of left and right hemispheres of the control group and SL and SR the water contents of left and right hemispheres of the treated group.

[3] = Acute toxicity (LD50) by intraperitoneal injection to mice; conditions: mouse, in vivo, ip, mortality 48 hours after injection
Description: Acute toxicity (LD50) was determined by intraperitoneal injection of a compound being tested to mice and by calculation from the mortality 48 hours after injection by the usual method.

[4] = cited from earlier work; for protection of the brain from cerebral ischemia: literature
[5] = control group 11.58 ± 0.81, *5% significant difference
[6] = three times (immediately, 8 and 16 h after occlusion)
[7] = control group 11.58 ± 0.81, **1% significant difference
[8] = dose 50 mg/Kg i.p., three times (immediately, 8 and 16 h after occlusion)

Clc1ccccc1C1CC=NN1 (stereo not drawn) [Compound 34, 5-(2-Chlorophenyl)-2-pyrazoline]
Rate of Infarcted Area [1, 5]: 8.56 ± 0.71% | inhibition in vivo at 25 mg/kg [2, 6]: 29.1% | LD50 at 48 h [3]: 600 mg/kg

O=C(c1cccnc1)N1N=CCC1c1ccccc1 (stereo not drawn) [Compound 1, 1-(3-Pyridylcarbonyl)-5-phenyl-2-pyrazoline]
Rate of Infarcted Area [1, 7]: 5.03 ± 0.49% | inhibition in vivo at 30 mg/kg [2, 6]: 36% | LD50 at 48 h [3]: 600 mg/kg

O=C(c1ccccn1)N1N=CCC1c1ccccc1 (stereo not drawn) [Compound 3, 1-(2-Pyridylcarbonyl)-5-phenyl-2-pyrazoline]
inhibition in vivo at 30 mg/kg [2, 6]: 15.7% | LD50 at 48 h [3]: 560 mg/kg

C1=NNC(c2ccncc2)C1 (stereo not drawn) [Compound 52, 5-(4-Pyridyl)-2-pyrazoline]
inhibition in vivo at 25 mg/kg [2, 6]: 21.8% | LD50 at 48 h [3]: 540 mg/kg

O=C(Nc1cccnc1)N1N=CCC1c1ccccc1 (stereo not drawn) [Compound 65, 1-[N-(3-pyridyl)carbamoyl]-5-phenyl-2-pyrazoline]
inhibition in vivo at 25 mg/kg [2, 6]: 27.1% | LD50 at 48 h [3]: 630 mg/kg

Cc1ccccc1C1CC=NN1 (stereo not drawn) [Compound 37, 5-(2-Methylphenyl)-2-pyrazoline]
inhibition in vivo at 25 mg/kg [2, 6]: 30.4% | LD50 at 48 h [3]: 680 mg/kg

O=C(C1CCCCC1)N1N=CCC1c1ccccc1 (stereo not drawn) [Compound 62, 1-Cyclohexylcarbonyl-5-phenyl-2-pyrazoline]
inhibition in vivo at 30 mg/kg [2, 6]: 15.3% | LD50 at 48 h [3]: 630 mg/kg

CCOC(=O)N1N=CCC1C (stereo not drawn) [Compound 28, 1-Ethoxycarbonyl-5-methyl-2-pyrazoline]
Rate of Infarcted Area [1, 7]: 5.79 ± 0.43%

COc1ccc(C2CC=NN2C(=O)c2cccnc2)cc1 (stereo not drawn) [Compound 6, 1-(3-Pyridylcarbonyl)-5-(4-methoxyphenyl)-2-pyrazoline]
inhibition in vivo at 30 mg/kg [2, 6]: 19.3% | LD50 at 48 h [3]: 830 mg/kg

CCOC(=O)N1N=CCC1c1ccccc1 (stereo not drawn) [Compound 25, 1-Ethoxycarbonyl-5-phenyl-2-pyrazoline]
inhibition in vivo at 50 mg/kg [2, 8]: 27.2% | LD50 at 48 h [3]: 830 mg/kg

O=C(c1ccc(C(F)(F)F)cc1)N1N=CCC1c1ccccc1 (stereo not drawn) [Compound 60, 1-(4-Trifluoromethylbenzoyl)-5-phenyl-2-pyrazoline]
inhibition in vivo at 30 mg/kg [2, 6]: 20.9% | LD50 at 48 h [3]: 810 mg/kg

CCCC(C)C1(CC)C(=O)NC(=O)NC1=O (stereo not drawn) [pentobarbital]
protection of the brain from cerebral ischemia [4]: protect the brain from cerebral ischemia

S=C(Nc1cccnc1)N1N=CCC1c1ccccc1 (stereo not drawn) [Compound 66, 1-[N-(3-pyridyl)thiocarbamoyl]-5-phenyl-2-pyrazoline]
inhibition in vivo at 25 mg/kg [2, 6]: 18.9% | LD50 at 48 h [3]: 560 mg/kg

O=C(c1ccco1)N1N=CCC1c1ccccc1 (stereo not drawn) [Compound 63, 1-(2-Furylcarbonyl)-5-phenyl-2-pyrazoline]
inhibition in vivo at 30 mg/kg [2, 6]: 26.1% | LD50 at 48 h [3]: 710 mg/kg

O=C(c1cccnc1)N1N=CCC1c1ccccc1F (stereo not drawn) [Compound 9, 1-(3-Pyridylcarbonyl)-5-(2-fluorophenyl)-2-pyrazoline]
inhibition in vivo at 25 mg/kg [2, 6]: 29.1% | LD50 at 48 h [3]: 830 mg/kg

COc1ccccc1C1CC=NN1C(=O)c1cccnc1 (stereo not drawn) [Compound 4, 1-(3-Pyridylcarbonyl)-5-(2-methoxyphenyl)-2-pyrazoline]
inhibition in vivo at 30 mg/kg [2, 6]: 28.3% | LD50 at 48 h [3]: 610 mg/kg

O=C(CN1N=CCC1c1ccccc1)c1ccccc1 (stereo not drawn) [Compound 61, 1-Benzoylmethyl-5-phenyl-2-pyrazoline]
inhibition in vivo at 30 mg/kg [2, 6]: 16.7% | LD50 at 48 h [3]: 540 mg/kg

O=C([O-])N1N=CCC1c1ccccc1.[Na+] (stereo not drawn)
inhibition in vivo at 50 mg/kg [2]: 18.6% | LD50 at 48 h [3]: 710 mg/kg

Fc1cccc(C2CC=NN2)c1 (stereo not drawn) [Compound 42, 5-(3-Fluorophenyl)-2-pyrazoline]
inhibition in vivo at 25 mg/kg [2, 6]: 23.9% | LD50 at 48 h [3]: 710 mg/kg

Cc1ccccc1C1CC=NN1C(=O)c1cccnc1 (stereo not drawn) [Compound 10, 1-(3-Pyridylcarbonyl)-5-(2-methylphenyl)-2-pyrazoline]
inhibition in vivo at 25 mg/kg [2, 6]: 31.3% | LD50 at 48 h [3]: 610 mg/kg

CCC1(c2ccccc2)C(=O)NC(=O)N(C)C1=O (stereo not drawn) [mefobarbital]
protection of the brain from cerebral ischemia [4]: protect the brain from cerebral ischemia

CC(C)C1CC=NN1C(=O)c1cccnc1 (stereo not drawn) [Compound 22, 1-(3-Pyridylcarbonyl)-5-isopropyl-2-pyrazoline]
inhibition in vivo at 50 mg/kg [2, 8]: 27.2% | LD50 at 48 h [3]: 830 mg/kg

O=C(c1ccccc1)N1N=CCC1c1ccccc1 (stereo not drawn) [Compound 59, 1-Benzoyl-5-phenyl-2-pyrazoline]
Rate of Infarcted Area [1, 5]: 7.69 ± 0.67% | inhibition in vivo at 30 mg/kg [2, 6]: 21.7% | LD50 at 48 h [3]: 600 mg/kg

CCN(CC)Cc1nccn1-c1ccc([N+](=O)[O-])cc1C(=O)c1ccccc1Cl [Nizofenone]
action to inhibit cerebral edemas ([4]; Japan Clinics, 43, 185, 1985): no action to inhibit cerebral edemas | consciousness troubles ([4]; Japan Clinics, 43, 185, 1985): helps alleviate consciousness troubles | protection of the brain from cerebral ischemia [4]: useful to protect the brain from cerebral ischemia

C1=NNC(c2ccccc2)C1 (stereo not drawn) [Compound 31, 5-Phenyl-2-pyrazoline]
Rate of Infarcted Area [1, 5]: 7.93 ± 0.56% | inhibition in vivo at 25 mg/kg [2, 6]: 32% | LD50 at 48 h [3]: 540 mg/kg

COc1cccc(C2CC=NN2C(=O)c2cccnc2)c1 (stereo not drawn) [Compound 5, 1-(3-Pyridylcarbonyl)-5-(3-methoxyphenyl)-2-pyrazoline]
inhibition in vivo at 30 mg/kg [2, 6]: 20.7% | LD50 at 48 h [3]: 630 mg/kg

COc1ccccc1C1CC=NN1 (stereo not drawn) [Compound 40, 5-(2-Methoxylphenyl)-2-pyrazoline]
inhibition in vivo at 25 mg/kg [2, 6]: 25.7% | LD50 at 48 h [3]: 560 mg/kg

O=C(c1cccnc1)N1N=CCC1c1ccco1 (stereo not drawn) [Compound 7, 1-(3-Pyridylcarbonyl)-5-(2-furyl)-2-pyrazoline]
Rate of Infarcted Area [1, 5]: 6.96 ± 0.79% | inhibition in vivo at 30 mg/kg [2, 6]: 31.2% | LD50 at 48 h [3]: 1100 mg/kg

O=C(c1cnccn1)N1N=CCC1c1ccccc1 (stereo not drawn) [Compound 8, 1-Pyrazylcarbonyl-5-phenyl-2-pyrazoline]
inhibition in vivo at 25 mg/kg [2, 6]: 33% | LD50 at 48 h [3]: 710 mg/kg

CCC1CC=NN1C(=O)OC (stereo not drawn) [Compound 30, 1-Methoxycarbonyl-5-ethyl-2-pyrazoline]
inhibition in vivo at 25 mg/kg [2, 6]: 29.1% | LD50 at 48 h [3]: 740 mg/kg

O=C(c1ccncc1)N1N=CCC1c1ccccc1 (stereo not drawn) [Compound 2, 1-(4-Pyridylcarbonyl)-5-phenyl-2-pyrazoline]
inhibition in vivo at 30 mg/kg [2, 6]: 30.5% | LD50 at 48 h [3]: 630 mg/kg

CC(=O)N1N=CCC1c1ccccc1 (stereo not drawn) [Compound 56, -Acetyl-5-phenyl-2-pyrazoline]
inhibition in vivo at 25 mg/kg [2, 6]: 15.9% | LD50 at 48 h [3]: 1100 mg/kg

O=C(c1cccnc1)N1N=CCC1c1ccc(Cl)cc1 (stereo not drawn) [Compound 11, 1-(3-Pyridylcarbonyl)-5-(4-chlorophenyl)-2-pyrazoline]
inhibition in vivo at 25 mg/kg [2, 6]: 29.3% | LD50 at 48 h [3]: 710 mg/kg

CC1CC=NN1C(=O)c1cccnc1 (stereo not drawn) [Compound 17, 1-(3-Pyridylcarbonyl)-5-methyl-2-pyrazoline]
Rate of Infarcted Area [1, 5]: 8.01 ± 0.54% | inhibition in vivo at 25 mg/kg [2, 6]: 34% | LD50 at 48 h [3]: 850 mg/kg

C1=NNC(c2cccnc2)C1 (stereo not drawn) [Compound 53, 5-(3-Pyridyl)-2-pyrazoline]
inhibition in vivo at 25 mg/kg [2, 6]: 16.7% | LD50 at 48 h [3]: 600 mg/kg

O=C(c1cccs1)N1N=CCC1c1ccccc1 (stereo not drawn) [Compound 64, 1-(2-Thienylcarbonyl)-5-phenyl-2-pyrazoline]
inhibition in vivo at 30 mg/kg [2, 6]: 28.5% | LD50 at 48 h [3]: 830 mg/kg

FC(F)(F)c1cccc(C2CC=NN2)c1 (stereo not drawn) [Compound 45, 5-(3-Trifluoromethylphenyl)-2-pyrazoline]
inhibition in vivo at 25 mg/kg [2, 6]: 30.4% | LD50 at 48 h [3]: 630 mg/kg
